Results: article PMC3961306, “Comparison of the Cancer Gene Targeting and Biochemical Selectivities of All Targeted Kinase Inhibitors Approved for Clinical Use” (PLoS ONE, 2014)

Key:
Test in all cases: Kinase profiling in a biochemical assay panel (mobility shift assays and ELISA), %-inhibition at 1 μM; selectivity entropy
[1] = target: panel of more than 300 wild-type and mutant kinases (313 kinase panel) (Homo sapiens, UniProt Q15119)
[2] = target: panel of more than 300 wild-type and mutant kinases (313 kinase panel) (Homo sapiens, UniProt P23458)
[3] = target: panel of more than 300 wild-type and mutant kinases (313 kinase panel) (Homo sapiens, UniProt Q00535)
[4] = target: panel of more than 300 wild-type and mutant kinases (313 kinase panel) (Homo sapiens, UniProt Q14289)
[5] = target: T1, panel of more than 300 wild-type and mutant kinases (313 kinase panel) (Homo sapiens, UniProt P42680)
T1 sequence (P42680 1-631): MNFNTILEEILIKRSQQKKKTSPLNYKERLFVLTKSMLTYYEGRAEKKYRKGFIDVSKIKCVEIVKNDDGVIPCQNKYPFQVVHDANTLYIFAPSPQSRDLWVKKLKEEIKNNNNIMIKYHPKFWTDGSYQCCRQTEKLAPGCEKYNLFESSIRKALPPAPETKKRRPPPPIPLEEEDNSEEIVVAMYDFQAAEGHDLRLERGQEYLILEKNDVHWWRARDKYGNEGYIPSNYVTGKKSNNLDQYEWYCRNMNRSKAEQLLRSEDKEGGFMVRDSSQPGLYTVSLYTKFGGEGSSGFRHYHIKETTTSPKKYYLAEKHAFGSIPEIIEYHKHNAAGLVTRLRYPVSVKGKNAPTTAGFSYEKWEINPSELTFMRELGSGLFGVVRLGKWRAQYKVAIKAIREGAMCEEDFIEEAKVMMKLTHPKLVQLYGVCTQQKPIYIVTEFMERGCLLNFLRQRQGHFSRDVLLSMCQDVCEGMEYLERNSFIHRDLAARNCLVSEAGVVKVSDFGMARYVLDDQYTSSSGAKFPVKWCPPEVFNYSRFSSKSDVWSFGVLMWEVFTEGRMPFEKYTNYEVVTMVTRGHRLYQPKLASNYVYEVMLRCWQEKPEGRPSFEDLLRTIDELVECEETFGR

[6] = target: panel of more than 300 wild-type and mutant kinases (313 kinase panel) (Homo sapiens, UniProt P10721, D816V)
[7] = target: panel of more than 300 wild-type and mutant kinases (313 kinase panel) (Homo sapiens, UniProt P08922)
[8] = target: T2, panel of more than 300 wild-type and mutant kinases (313 kinase panel) (Homo sapiens, UniProt Q92630)
T2 sequence (Q92630 1-601): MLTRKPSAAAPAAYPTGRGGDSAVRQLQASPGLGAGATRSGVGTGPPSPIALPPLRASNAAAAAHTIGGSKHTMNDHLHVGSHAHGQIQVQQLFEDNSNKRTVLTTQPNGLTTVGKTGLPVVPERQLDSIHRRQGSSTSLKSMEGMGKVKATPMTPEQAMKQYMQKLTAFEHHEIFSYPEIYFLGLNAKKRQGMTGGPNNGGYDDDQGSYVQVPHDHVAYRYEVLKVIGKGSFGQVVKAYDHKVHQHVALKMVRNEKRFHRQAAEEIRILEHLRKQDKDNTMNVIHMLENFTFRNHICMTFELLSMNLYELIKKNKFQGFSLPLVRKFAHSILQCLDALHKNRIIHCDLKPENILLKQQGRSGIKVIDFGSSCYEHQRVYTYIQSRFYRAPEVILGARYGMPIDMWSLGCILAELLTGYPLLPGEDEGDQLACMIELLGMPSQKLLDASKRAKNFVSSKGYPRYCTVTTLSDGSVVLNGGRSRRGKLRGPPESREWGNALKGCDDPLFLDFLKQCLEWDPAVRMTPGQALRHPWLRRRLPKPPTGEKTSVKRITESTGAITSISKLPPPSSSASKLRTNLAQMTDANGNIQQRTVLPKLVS

[9] = target: panel of more than 300 wild-type and mutant kinases (313 kinase panel) (Homo sapiens, UniProt O96017)
[10] = kinase KIT(D816V), compound at 1 μM

Structure (SMILES) | %-inhibition of PDHK2 ([1]; kinase PDHK2, 1 μM) | %-inhibition of JAK1 ([2]; kinase JAK1, compound at 1 μM) | %-inhibition, CDK5/p25 ([3]; kinase CDK5/p25, 1 μM compound) | %-inhibition of PYK2 ([4]; kinase PYK2, 1 μM) | %-inhibition of TEC ([5]; kinase TEC, 1 μM) | %-inhibition of KIT(D816V) [6, 10] | %-inhibition of ROS ([7]; kinase ROS, 1 μM) | %-inhibition of DYRK2 ([8]; kinase DYRK2, compound at 1 μM) | %-inhibition, CHK2 ([9]; kinase CHK2, 1 μM compound) | %-inhibition of DYRK2 ([8]; 1 µM) | %-inhibition of JAK1 ([2]; 1 µM) | %-inhibition of PDHK2 ([1]; 1 µM) | %-inhibition, CDK5/p25 ([3]; 1 µM) | %-inhibition of PYK2 ([4]; 1 µM) | %-inhibition of TEC ([5]; 1 µM) | %-inhibition of KIT(D816V) ([6]; 1 µM) | %-inhibition of ROS ([7]; 1 µM) | %-inhibition, CHK2 ([9]; 1 µM)
CN(C)C/C=C/C(=O)Nc1cc2c(Nc3ccc(F)c(Cl)c3)ncnc2cc1O[C@H]1CCOC1 [afatinib] | -2.76% | – | – | – | – | – | – | – | – | – | – | – | – | – | – | – | – | –
COc1cc(Nc2c(C#N)cnc3cc(OCCCN4CCN(C)CC4)c(OC)cc23)c(Cl)cc1Cl [bosutinib] | -3.29% | -2% | -25% | 89% | 58% | 78% | 2.77% | – | – | – | – | – | – | – | – | – | – | –
COc1cc2nccc(Oc3ccc(NC(=O)C4(C(=O)Nc5ccc(F)cc5)CC4)cc3)c2cc1OC [cabozantinib] | -1.54% | -1.59% | -14% | 91% | 43% | 23% | – | 17% | 65% | – | – | – | – | – | – | – | – | –
C[C@@H](Oc1cc(-c2cnn(C3CCNCC3)c2)cnc1N)c1c(Cl)ccc(F)c1Cl [crizotinib] | -3.51% | 47% | -8% | – | 1.53% | 21% | – | 10% | 9% | – | – | – | – | – | – | – | – | –
CC(C)(C)c1nc(-c2cccc(NS(=O)(=O)c3c(F)cccc3F)c2F)c(-c2ccnc(N)n2)s1 [dabrafenib] | 0.108% | 5.7% | 22% | 56% | 38% | 9% | 8.55% | 6% | 7% | – | – | – | – | – | – | – | – | –
Cc1nc(Nc2ncc(C(=O)Nc3c(C)cccc3Cl)s2)cc(N2CCN(CCO)CC2)n1 [dasatinib] | – | – | 4.63% | – | – | – | – | 12% | – | – | – | – | – | – | – | – | – | –
C#Cc1cccc(Nc2ncnc3cc(OCCOC)c(OCCOC)cc23)c1 [erlotinib] | – | – | – | – | – | – | – | – | – | 45% | 8% | -4% | 8% | 8% | 20% | 32% | 8.54% | 10%
CO[C@H]1C[C@@H]2CC[C@@H](C)[C@@](O)(O2)C(=O)C(=O)N2CCCC[C@H]2C(=O)O[C@H]([C@H](C)C[C@@H]2CC[C@@H](OCCO)[C@H](OC)C2)CC(=O)[C@H](C)/C=C(\C)[C@@H](O)[C@@H](OC)C(=O)[C@H](C)C[C@H](C)/C=C/C=C/C=C/1C [everolimus] | 4% | -7% | -26% | 1.49% | -4% | -4.44% | -0.608% | -10% | -37% | – | – | – | – | – | – | – | – | –
O=S(=O)(c1cccc2cnccc12)N1CCCNCC1 [fasudil] | -0.108% | -1.43% | – | 1.79% | -7% | 4.75% | 4.27% | -1.3% | 4% | – | – | – | – | – | – | – | – | –
CS(=O)(=O)CCNCc1ccc(-c2ccc3ncnc(Nc4ccc(OCc5cccc(F)c5)c(Cl)c4)c3c2)o1 [lapatinib] | -5% | -3% | 0.201% | -0.787% | 0% | – | 5.46% | – | 12% | 10% | – | – | – | – | – | -3% | – | –
Cc1cn(-c2cc(NC(=O)c3ccc(C)c(Nc4nccc(-c5cccnc5)n4)c3)cc(C(F)(F)F)c2)cn1 [nilotinib] | 0.549% | – | 0.83% | – | -0.144% | – | – | 28% | -12% | – | 13% | – | – | -63% | – | 43% | -0.679% | –
Cc1ccc(C(=O)Nc2ccc(CN3CCN(C)CC3)c(C(F)(F)F)c2)cc1C#Cc1cnc2cccnn12 [ponatinib] | -0.22% | 99% | -20% | 99% | 79% | – | 58% | – | – | – | – | – | – | – | – | – | – | –
N#CC[C@H](C1CCCC1)n1cc(-c2ncnc3[nH]ccc23)cn1 [ruxolitinib] | -4% | – | -16% | 68% | 18% | 36% | – | -10% | 3.64% | – | – | – | – | – | – | – | 54% | –
CCN(CC)CCNC(=O)c1c(C)[nH]c(/C=C2\C(=O)Nc3ccc(F)cc32)c1C [sunitinib] | – | – | – | 94% | – | – | – | – | – | – | – | – | – | – | – | – | – | –
COc1cc2c(Nc3ccc(Br)cc3F)ncnc2cc1OCC1CCN(C)CC1 [vandetanib] | 0.22% | -3.31% | -25% | 6% | 15% | – | 48% | -9% | 57% | – | – | – | – | – | – | – | – | –
